Assay results from patent US7709471B2, “Compounds” (AstraZeneca AB, priority 2006, dated 2010).

How the values were obtained:
recombinant Plk1 = recombinant Plk1 (Homo sapiens, UniProt P53350); assay: In Vitro Plk1 Enzyme Assay (SPA, GST-Cdc25C phosphorylation); assay type: biochemical; conditions: ATP 64 nM, 90 minutes, read-out: IC50 (Plk1 enzyme inhibition)
[1] = tested on: human colon tumour cell line HT29; assay: Cellular Assay (phosphohistone H3 Ser10 mitotic marker, HT29); assay type: cell-based; conditions: HT-29, 24 h, HT29 cells, read-out: IC50 (cellular assay, phosphohistone H3)

Sequence of recombinant Plk1 (P53350 whole entry): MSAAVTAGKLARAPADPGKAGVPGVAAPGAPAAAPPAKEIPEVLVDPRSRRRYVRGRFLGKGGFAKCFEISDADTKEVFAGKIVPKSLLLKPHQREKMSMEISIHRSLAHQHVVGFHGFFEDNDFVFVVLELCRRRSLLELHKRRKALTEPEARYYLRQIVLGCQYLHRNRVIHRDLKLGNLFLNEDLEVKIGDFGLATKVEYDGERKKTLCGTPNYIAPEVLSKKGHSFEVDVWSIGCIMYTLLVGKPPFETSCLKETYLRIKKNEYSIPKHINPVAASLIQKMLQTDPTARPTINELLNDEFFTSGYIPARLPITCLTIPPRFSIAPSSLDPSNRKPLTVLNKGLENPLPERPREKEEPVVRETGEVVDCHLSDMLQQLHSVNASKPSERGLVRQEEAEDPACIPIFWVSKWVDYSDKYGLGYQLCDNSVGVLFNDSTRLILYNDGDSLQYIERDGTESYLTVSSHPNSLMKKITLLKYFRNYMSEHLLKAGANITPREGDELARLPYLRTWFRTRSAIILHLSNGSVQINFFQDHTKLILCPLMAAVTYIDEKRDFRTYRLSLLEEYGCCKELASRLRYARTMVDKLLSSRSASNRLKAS

Row | Structure (SMILES) | IC50 (recombinant Plk1) [µM] | IC50 [1] [µM]
1 | COc1cc(C(=O)NC2CCN(C)CC2)ccc1Nc1ncc2c(n1)N(Cc1ccccc1)CCC(=O)N2C [Example 215, 4-[(6-benzyl-2-methyl-3-oxo-2,6,8,10-tetrazabicyclo[5.4.0]undeca-8,10,12-trien-9-yl)amino]-3-methoxy-N-(1-methyl-4-piperidyl)benzamide] | < 1 | < 30
2 | COc1cc(C(=O)NCCN2CCOCC2)ccc1Nc1ncc2c(n1)N(C(C)C)CCC(=O)N2C [Example 219, 3-methoxy-4-[(2-methyl-3-oxo-6-propan-2-yl-2,6,8,10-tetrazabicyclo[5.4.0]undeca-7,9,11-trien-9-yl)amino]-N-(2-morpholin-4-ylethyl)benzamide] | < 0.3 | < 1
3 | COc1cc(C(=O)NCCN2CCOCC2)ccc1Nc1ncc2c(n1)N(c1ccccc1)CCC(=O)N2C [Example 220, 3-methoxy-4-[(2-methyl-3-oxo-6-phenyl-2,6,8,10-tetrazabicyclo[5.4.0]undeca-8,10,12-trien-9-yl)amino]-N-(2-morpholin-4-ylethyl)benzamide] | < 1 | < 30
4 | COc1cc(C(=O)NC2CCN(C)CC2)ccc1Nc1ncc2c(n1)N(c1ccccc1)CCC(=O)N2C [Example 221, 3-methoxy-4-[(2-methyl-3-oxo-6-phenyl-2,6,8,10-tetrazabicyclo[5.4.0]undeca-8,10,12-trien-9-yl)amino]-N-(1-methyl-4-piperidyl)benzamide] | < 0.3 | < 30
5 | CN(C)CC(C)(C)CNC(=O)c1ccc(Nc2ncc3c(n2)N(c2ccccc2)CCC(=O)N3C)cc1 [Example 223, N-(3-dimethylamino-2,2-dimethyl-propyl)-4-[(2-methyl-3-oxo-6-phenyl-2,6,8,10-tetrazabicyclo[5.4.0]undeca-8,10,12-trien-9-yl)amino]benzamide] | < 1 | < 30
6 | CN1CCC(NC(=O)c2ccc(Nc3ncc4c(n3)N(c3ccccc3)CCC(=O)N4C)cc2)CC1 [Example 224, 4-[(2-methyl-3-oxo-6-phenyl-2,6,8,10-tetrazabicyclo[5.4.0]undeca-8,10,12-trien-9-yl)amino]-N-(1-methyl-4-piperidyl)benzamide] | < 0.3 | < 30
7 | CC(C)N1CCC(=O)N(C)c2cnc(Nc3ccc(C(=O)NCCN4CCOCC4)cc3Cl)nc21 [Example 228, 3-chloro-4-[(2-methyl-3-oxo-6-propan-2-yl-2,6,8,10-tetrazabicyclo[5.4.0]undeca-7,9,11-trien-9-yl)amino]-N-(2-morpholin-4-ylethyl)benzamide] | < 1 | < 30

Second part, the molecule after the results:

Row | IC50 (recombinant Plk1) [µM] | IC50 [1] [µM] | Structure (SMILES)
8 | < 0.3 | < 0.3 | COc1cc(C(=O)NCCCCN2CCCC2)ccc1Nc1ncc2c(n1)N(C(C)C)CCC(=O)N2C [Example 209, 3-methoxy-4-[(2-methyl-3-oxo-6-propan-2-yl-2,6,8,10-tetrazabicyclo[5.4.0]undeca-7,9,11-trien-9-yl)amino]-N-(4-pyrrolidin-1-ylbutyl)benzamide]
9 | < 0.3 | < 0.3 | CCN1CCC(=O)N(C)c2cnc(Nc3ccc(C(=O)NC4CCN(C)CC4)cc3OC)nc21 [Example 210, 4-[(6-ethyl-2-methyl-3-oxo-2,6,8,10-tetrazabicyclo[5.4.0]undeca-7,9,11-trien-9-yl)amino]-3-methoxy-N-(1-methyl-4-piperidyl)benzamide]
10 | < 0.3 | < 0.3 | COc1cc(C(=O)NC2CCN(C)CC2)ccc1Nc1ncc2c(n1)N(CC1CC1)CCC(=O)N2C [Example 213, 4-[[6-(cyclopropylmethyl)-2-methyl-3-oxo-2,6,8,10-tetrazabicyclo[5.4.0]undeca-8,10,12-trien-9-yl]amino]-3-methoxy-N-(1-methyl-4-piperidyl)benzamide]
11 | < 0.3 | < 30 | CC(C)N1CCC(=O)N(C)c2cnc(Nc3ccc(C(=O)NCCN4CCOCC4)cc3)nc21 [Example 218, 4-[(2-methyl-3-oxo-6-propan-2-yl-2,6,8,10-tetrazabicyclo[5.4.0]undeca-7,9,11-trien-9-yl)amino]-N-(2-morpholin-4-ylethyl)benzamide]
